Patent US20040082602A1, “Substituted thiophene carboxamide compounds for the treatment of inflammation” (priority 2002, published 2004)
Counter-ions that a name gives are not always drawn.

Biological target: T1, IKK-2 (Homo sapiens, UniProt O14920)
T1 construct: made in house; host or cells: baculovirus (pFastBac) in insect cells; SF9
T1 sequence (O14920 1-756): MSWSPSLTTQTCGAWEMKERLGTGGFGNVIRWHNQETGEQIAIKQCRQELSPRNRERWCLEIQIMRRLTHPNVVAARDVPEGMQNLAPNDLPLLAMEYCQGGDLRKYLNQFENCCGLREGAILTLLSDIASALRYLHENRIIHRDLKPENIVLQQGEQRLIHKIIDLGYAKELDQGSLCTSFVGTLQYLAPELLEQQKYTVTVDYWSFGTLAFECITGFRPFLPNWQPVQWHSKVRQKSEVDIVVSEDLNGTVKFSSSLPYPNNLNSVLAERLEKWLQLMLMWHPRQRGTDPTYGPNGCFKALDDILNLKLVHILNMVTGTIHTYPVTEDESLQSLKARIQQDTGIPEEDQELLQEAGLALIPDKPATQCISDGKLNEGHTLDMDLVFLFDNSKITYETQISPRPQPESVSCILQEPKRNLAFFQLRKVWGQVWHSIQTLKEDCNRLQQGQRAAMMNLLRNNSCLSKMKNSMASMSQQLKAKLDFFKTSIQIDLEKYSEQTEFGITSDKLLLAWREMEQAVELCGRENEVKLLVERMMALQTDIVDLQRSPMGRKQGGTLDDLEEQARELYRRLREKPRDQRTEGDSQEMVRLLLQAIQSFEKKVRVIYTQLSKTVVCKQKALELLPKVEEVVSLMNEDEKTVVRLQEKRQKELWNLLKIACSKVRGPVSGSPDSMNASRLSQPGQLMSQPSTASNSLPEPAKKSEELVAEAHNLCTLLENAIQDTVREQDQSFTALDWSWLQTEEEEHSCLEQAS
Experiment: IKK-2 Resin assay (IKKβ Resin Enzyme Assay)
Type: biochemical
Details: rhIKK2 homodimer, 5 μM biotinylated IκBα peptide, 1 μM ATP, 25° C., 30 min
Text: cDNAs of human IKK1 and IKK2 were amplified by reverse transcriptase-polymerase chain reaction from human placental RNA (Clonetech). hIKK1 was subcloned into pFastBac HTa (Life Technologies) and expressed as N-terminal His6-tagged fusion protein. The hIKK2 cDNA was amplified using a reverse oligonucleotide primer which incorporated the peptide sequence for a FLAG-epitope tag at the C-terminus of the IKK2 coding region (DYKDDDDKD). The hIKK2:FLAG cDNA was subcloned into the baculovirus vector pFastBac. The rhIKK2 ([…]) mutant was constructed in the same vector used for wild type rhIKK2 using a QuikChange™ mutagenesis kit (Stratagene). Viral stocks of each construct were used to infect insect cells grown in 40L suspension culture. […] Cell lysates were stored at −80° C. until purification of the recombinant proteins was undertaken as described below.
A 10-liter culture of baculovirus-expressing IKK2 tagged with FLAG peptide was centrifuged and the cell pellet (MOI=0.1 and 1=72 hrs) was re-suspended in buffer A. These cells were microfluidized, and centrifuged at 100,000×g for 45 min. Supernatant was passed over a G-25 column equilibrated with Buffer A. Protein peak was collected and incubated with anti-FLAG affinity resin on a rotator overnight in buffer B. The resin was washed in batch with 10-15 bed volumes of buffer C. Washed resin was poured into a column and rhIKK2 homodimer was eluted using 5 bed volumes of buffer B containing FLAG peptide. 5 mM DTT, 0.1% NP-40 and BSA (concentrated to 0.1% in final amount) was added to the eluted enzyme before concentrating in using an Amicon membrane with a molecular weight cut-off of 30 kDa. Enzyme was aliquoted and stored at −80° C.
IKKβ kinase activity was measured using a biotinylated IκBα peptide (Gly-LeuLys-Lys-Glu-Arg-Leu-Leu-Asp-Asp-Arg-His-Asp-Ser32-Gly-Leu-Asp-Ser36-Met Lys-Asp-Glu-Glu) (American Peptide Co.). 20 ul of the standard reaction mixture contained 5 μM biotinylated IκBα peptide, 0.1 μCi/reaction [γ^33P] ATP (Amersham) (about 1×10^5 cpm), 1 μM ATP (Sigma), 1 mM DTT (Sigma), 2 mM MgCl2 (Sigma), 2 mM MnCl2 (Sigma), 10 mM NaF (Sigma), 25 mM Hepes (Sigma) buffer, pH 7.6 and 20 μl enzyme solution and 10 ul inhibitor in a final volume of […]. After incubation at 25° C. for 30 min, 150 μl resin (Dowex anion-exchange resin AGIX8 200-400 mesh) in 900 mM formate, pH 3.0 was added to each well to stop the reaction. Resin was allowed to settle for one hour and 50 ul of supernatant was removed to a Micolite-2 flat bottom plate (Dynex). 150 μl of scintillation fluid (Microscint 40) (Packard) was added to each well. Incorporation of [γ-^33P] ATP was measured using a Top-Count NXT (Packard).

IC50 [µM] | SMILES
≤ 1 | NC(=O)Nc1sc2c(c1C(N)=O)CCc1ccccc1-2 [Example 8, 2-[(aminocarbonyl)amino]-4,5-dihydronaphtho[1,2-b]thiophene-3-carboxamide]
10 to 20 | NCCCNc1c(C(N)=O)sc2c1CCc1ccccc1-2 [Example 4, 3-[(3-aminopropyl)amino]-4,5-dihydronaphtho[1,2-b]thiophene-2-carboxamide hydrochloride]
10 to 20 | CC(=O)Nc1sc2c(c1C(N)=O)CCc1ccccc1-2 [Example 7, 2-(acetylamino)-4,5-dihydronaphtho[1,2-b]thiophene-3-carboxamide]
10 to 20 | NC(=O)Nc1c(C(N)=O)sc2c1CCc1ccccc1-2 [Example 5, 3-[(aminocarbonyl)amino]4,5-dihydronaphtho[1,2-b]thiophene-2-carboxamide]
10 to 20 | NC(=O)c1sc2c(c1N)CCc1ccccc1-2 [Example 1, 3-amino-4,5-dihydronaphtho[1,2-b]thiophene-2-carboxamide]
1 to 10 | NCCNc1c(C(N)=O)sc2c1CCc1ccccc1-2 [Example 3, 3-[(2-aminoethyl)amino]-4,5-dihydronaphtho[1,2-b]thiophene-2-carboxamide hydrobromide]
10 to 20 | N#Cc1c(N)sc2c1CCc1ccccc1-2 [Example 6, 2-amino-4,5-dihydronaphtho[1,2-b]thiophene-3-carbonitrile]
1 to 10 | COc1ccc2c(c1)-c1sc(C(N)=O)c(N)c1CC2 [Example 2, 3-amino-8-methoxy-4,5-dihydronaphtho[1,2-b]thiophene-2-carboxamide]
